Reference: PubChem BioAssay (NCI)
Values joined by “and” are separate entries in the source; they are usually repeats but may differ in a detail not shown here. Equal values may be shown once.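 The compound was tested at five concentrations on cells cultured in 96-well plates, with a 48-hour exposure period. At the GI50, growth is halved. TGI is the concentration that stops growth completely.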

How the values were obtained:
Experiment in all cases: NCI anticancer screen, dose series, 48 h
[1] = system: SF-539 CNS
[2] = system: KM12 colon
[3] = system: OVCAR-8 ovarian
[4] = system: CCRF-CEM leukemia
[5] = system: SK-MEL-28 melanoma
[6] = system: RXF 393 renal
[7] = system: 786-0 renal
[8] = system: M14 melanoma
[9] = system: HCT-116 colon

Row | Structure (SMILES) | TGI [1] [µM] | TGI [2] [µM] | TGI [3] | TGI [4] [µM] | TGI [5] | TGI [6] [µM] | TGI [7] [µM] | TGI [8] [µM] | TGI [9] [µM] | GI50 [2] [µM] | GI50 [3] [µM] | GI50 [4] [µM] | GI50 [5] | GI50 [7] [µM] | GI50 [8] [µM] | GI50 [9] [µM] | GI50 [1] [µM] | GI50 [6] [µM]
1 | N#CC1(N2CCCC2)CCC2(CC1)OCCO2 | > 100 | > 100 | > 100 µM | > 100 | > 100 µM | > 100 | > 100 | > 100 | > 100 | – | – | – | – | – | – | – | – | –
2 | CC(=O)OC1=C2CC[C@@H]3C(CC[C@@]4(C)C3CC[C@@H]4OC(C)=O)[C@@]2(C)CC(C#N)C1=O (stereo not given in full) | > 100 | > 100 | > 100 µM | 53.1 | > 100 µM | > 100 | > 100 | > 100 | > 100 | – | – | – | – | – | – | – | – | –
3 | COc1ccc2c(c1)C(=O)c1c-2c(N2CCN(C(=O)CCNCCNCCN)CC2)nc2ccccc12 | – | 62.2 | 72.2 µM | 7.93 | 3.66 µM | – | 6.62 | 3.83 | 3.7 | 4.94 | 19.9 | 2.85 | 2.04 µM | 2.51 | 2.03 | 1.85 | – | –
4 | Cc1nc2ccccc2c(/C=C/c2ccccc2)c1C(=O)/C=C/c1ccc(C(F)(F)F)cc1 | 3.27 | – | 7.98 µM | > 100 | 3.27 µM | 3.1 | 2.71 | 3.94 | 1.16 | – | 1.78 | 0.381 | 1.74 µM | 1.22 | 1.6 | 0.226 | 1.82 | 1.41
5 | CCOC(=O)CNC(=O)OCc1ccccc1 | > 100 | > 100 | > 100 µM | > 100 | > 100 µM | – | > 100 | > 100 | > 100 | – | – | – | – | – | – | – | – | –
6 | [Co].[O-]c1cccnc1C=Nc1ccccc1.[OH3+] | > 100 | > 100 | > 100 µM | > 100 | > 100 µM | – | > 100 | > 100 | > 100 | > 100 | > 100 | > 100 | 82.6 µM | > 100 | > 100 | > 100 | > 100 | –
7 | O=S1(=O)c2cc(S(=O)(=O)n3ccnc3)ccc2NC2=NCCCN21 | 40.1 | 89.5 | 70 µM | 73.3 | > 100 µM | – | 99.6 | > 100 | 85.8 | – | – | – | – | – | – | – | – | –
8 | CN(C)CCN(C)C(=O)c1cccc2cccc(C(=O)O)c12 | > 100 | – | > 100 µM | > 100 | > 100 µM | > 100 | > 100 | > 100 | > 100 | – | – | – | – | – | – | – | – | –
9 | C/C(=C\C(C[C@](C)(O)C(O)CCC#C[Si](C)(C)C)S(=O)(=O)c1ccccc1)CC/C=C/CO[Si](C)(C)C(C)(C)C (stereo not given in full) | 37 | 32.6 | 33.6 µM | 28.9 | – | 31.3 | 31.5 | 34 | 26.6 | – | – | – | – | – | – | – | – | –
10 | O=C(CC1(O)C(=O)Nc2ccccc21)c1ccc(Cl)cc1Cl (stereo not given) | > 100 | – | > 100 µM | – | > 100 µM | > 100 | > 100 | > 100 | > 100 | – | – | – | – | – | – | – | – | –
11 | C[C@]12CCc3nonc3C1CC[C@@H]1C2CC[C@@]2(C)C1CC[C@@H]2O (stereo not given in full) | > 100 | > 100 | > 100 µM | > 100 | > 100 µM | > 100 | > 100 | > 100 | – | – | – | – | – | – | – | – | – | –
12 | CC(=O)NCc1c(C(N)=O)ncn1Cc1ccccc1 | > 100 | – | > 100 µM | > 100 | > 100 µM | > 100 | > 100 | > 100 | > 100 | – | – | – | – | – | – | – | – | –
13 | COc1ccccc1NC(=O)C1=C(C)NC(C)=C(C(=O)Nc2ccccc2OC)C1c1ccccc1Cl | > 100 | > 100 | > 100 µM | > 100 | > 100 µM | – | > 100 | > 100 | > 100 | – | – | – | – | – | – | – | – | –
14 | CC(C)CCCCCCCCCCCCC(=O)NCC(=O)NC1C(C)OC(Nc2ncnc3nc[nH]c23)C(O)C1O (stereo not given) | – | 0.208 | 0.00924 µM and 0.0182 µM | 0.223 | 0.485 µM and 1.26 µM | 0.0369 | 0.232 | – | – | 0.000442 | 0.00187 | – | 0.00869 µM and 0.0484 µM | 0.00182 | 0.00252 | – | 0.011 | 0.00101
15 | CC(=O)[CH-]C(C)=O.CC(=O)[CH-]C(C)=O.[Cl-].[O]=[V] | 37.5 | – | > 100 µM | – | > 100 µM | 24.6 | 42.9 | 31 | 48.3 | – | 46.4 | – | 25.7 µM | 20 | 11.4 | 19.1 | 17.5 | 10.9
16 | CC[O-].CC[O-].O=C([CH-]C(=O)c1ccccc1)CCCCCCC(=O)[CH-]C(=O)c1ccccc1.[Ti+4] | > 100 | > 100 | > 100 µM | > 100 | > 100 µM | > 100 | > 100 | > 100 | – | > 100 | > 100 | > 100 | > 100 µM | > 100 | > 100 | – | > 100 | > 100
